Experimental data reported in patent US20240252488A1 (KOREA RESEARCH INSTITUTE OF CHEMICAL TECHNOLOGY, priority 2020, published 2024).

Legend:
FADD−/− Jurkat cells = test: Necroptosis inhibition assay, TNF-α-induced necroptosis (CellTiter-Glo 2.0); assay type: cell-based, human; settings: TNF-α 15 ng/mL, FADD−/− Jurkat cells; for Necroptosis inhibition assay (Rescue %) 1 μM: compound 1 μM; for Necroptosis inhibition assay (Rescue %) 10 μM: compound 10 μM
In short: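 Cmpd 0.1/1/10 μM final, 30 min RT preincubation; TNF-α 15 ng/mL final; 20–24 h, 37° C, 5% CO2. Readout: ATP luminescence (reagent 1:3 in PBS), 0.5 s/well. Cytotoxicity and % necroptosis inhibition calculated from signal.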

MLKL [1] = target: T1, MLKL (Homo sapiens, UniProt Q8NB16); test: MLKL degradation assay in HepG2 cell line (western blot); assay type: cell-based; parameters: endogenous in cells; host or cells: HepG2 or HaCaT; settings: cell line not given; for Degradation assay (Degradation %) 1 μM: compound 1 μM; for Degradation assay (Degradation %) 10 μM: compound 10 μM
T1 sequence (Q8NB16 1-471): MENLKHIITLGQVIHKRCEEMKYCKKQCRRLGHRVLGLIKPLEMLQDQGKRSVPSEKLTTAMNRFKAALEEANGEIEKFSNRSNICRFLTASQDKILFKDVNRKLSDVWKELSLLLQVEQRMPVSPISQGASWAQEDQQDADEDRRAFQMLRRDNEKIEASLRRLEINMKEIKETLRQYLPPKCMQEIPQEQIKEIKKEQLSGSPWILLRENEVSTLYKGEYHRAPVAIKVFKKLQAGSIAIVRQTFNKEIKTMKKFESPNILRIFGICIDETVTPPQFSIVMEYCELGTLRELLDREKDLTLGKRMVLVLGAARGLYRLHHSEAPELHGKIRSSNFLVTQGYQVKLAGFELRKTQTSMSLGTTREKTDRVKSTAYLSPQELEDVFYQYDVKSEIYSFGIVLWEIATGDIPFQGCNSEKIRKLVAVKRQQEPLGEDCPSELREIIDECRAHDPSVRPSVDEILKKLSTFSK
In short: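 HepG2, cpd final 1 or 10 μM, 20-24 h, 37 °C/5% CO2; RIPA lysis, BCA-normalized, 10-15 μg/lane SDS-PAGE, western blot, ECL read-out.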

MLKL [2] = target: T1, MLKL; test: Measurement of binding affinity with MLKL receptor (competitive binding assay, Kd); parameters: made in house; host or cells: HEK 293 cell line (T7 phage in E. coli BL21-derived host is also described)
In short: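 MLKL was produced in HEK 293 cells and tagged with DNA for detection. Liganded beads were blocked with excess biotin and washed to cut non-specific binding, then compounds (111× DMSO stocks, 0.9% DMSO in assay) competed for binding. Eluate kinase was measured by qPCR for Kd.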

Structure (SMILES)	Degradation assay (Degradation %) 1 μM (MLKL [1])	Degradation assay (Degradation %) 10 μM (MLKL [1])	Kd (MLKL [2])	Necroptosis inhibition assay (Rescue %) 1 μM (FADD−/− Jurkat cells)	Necroptosis inhibition assay (Rescue %) 10 μM (FADD−/− Jurkat cells)
Nc1ncc(-c2cnn(C3CCN(CCCN4CCN(CC5CCN(C(=O)CNc6ccc7c(c6)C(=O)N(C6CCC(=O)NC6=O)C7=O)CC5)CC4)CC3)c2)nc1C(=O)O[C@@H](C(=O)Nc1ccc(F)cc1)c1ccccc1 (stereo partly drawn) [TDH-441, (R)-2-((4-fluorophenyl)amino)-2-oxo-1-phenylethyl 3-amino-6-(1-(1-(3-(4-((1-((2-(2,6-dioxopiperidin-3-yl)-1,3-dioxoisoindolin-5-yl)glycyl)piperidin-4-yl)methyl)piperazin-1-yl)propyl)piperidin-4-yl)-1H-pyrazol-4-yl)pyrazine-2-carboxylate]	87.59%	87.7%	690 pM	71.58%	−15.73%
Nc1ncc(-c2cnn(C3CCN(C4CC5(CCN(CC6CCN(C(=O)CNc7ccc8c(c7)C(=O)N(C7CCC(=O)NC7=O)C8=O)CC6)CC5)C4)CC3)c2)nc1C(=O)O[C@@H](C(=O)Nc1ccc(F)cc1)c1ccccc1 (stereo partly drawn) [TDH-443, (R)-2-((4-fluorophenyl)amino)-2-oxo-1-phenylethyl 3-amino-6-(1-(1-(7-((1-((2-(2,6-dioxopiperidin-3-yl)-1,3-dioxoisoindolin-5-yl)glycyl)piperidin-4-yl)methyl)-7-azaspiro[3.5]nonan-2-yl)piperidin-4-yl)-1H-pyrazol-4-yl)pyrazine-2-carboxylate]	84.23%	86.93%	520 pM	59.05%	−65.46%
COc1ccc(C(=O)N2CCN(CCCN3CCC(n4cc(-c5cnc(N)c(C(=O)O[C@@H](C(=O)Nc6ccc(F)cc6)c6ccccc6)n5)cn4)CC3)CC2)cc1N1CCC(=O)NC1=O [TDH-447, (R)-2-((4-fluorophenyl)amino)-2-oxo-1-phenylethyl 3-amino-6-(1-(1-(3-(4-(3-(2,4-dioxotetrahydropyrimidin-1(2H)-yl)-4-methoxybenzoyl)piperazin-1-yl)propyl)piperidin-4-yl)-1H-pyrazol-4-yl)pyrazine-2-carboxylate]	60.39%	14.41%	170 pM	33.69%	14.38%
COc1ccc(C(=O)N2CCC(OCCN3CCC(n4cc(-c5cnc(N)c(C(=O)O[C@@H](C(=O)Nc6ccc(F)cc6)c6ccccc6)n5)cn4)CC3)CC2)cc1N1CCC(=O)NC1=O [TDH-448, (R)-2-((4-fluorophenyl)amino)-2-oxo-1-phenylethyl 3-amino-6-(1-(1-(2-((1-(3-(2,4-dioxotetrahydropyrimidin-1(2H)-yl)-4-methoxybenzoyl)piperidin-4-yl)oxy)ethyl)piperidin-4-yl)-1H-pyrazol-4-yl)pyrazine-2-carboxylate]	48.26%	7.49%	380 pM	27.91%	20.07%
Nc1ncc(-c2cnn(C3CCN(CCc4cn(C5CCN(C(=O)COc6ccc7c(c6)C(=O)N(C6CCC(=O)NC6=O)C7=O)CC5)nn4)CC3)c2)nc1C(=O)O[C@@H](C(=O)Nc1ccc(F)cc1)c1ccccc1 (stereo partly drawn) [TDH-451, (R)-2-((4-fluorophenyl)amino)-2-oxo-1-phenylethyl 3-amino-6-(1-(1-(2-(1-(1-(2-((2-(2,6-dioxopiperidin-3-yl)-1,3-dioxoisoindolin-5-yl)oxy)acetyl)piperidin-4-yl)-1H-1,2,3-triazol-4-yl)ethyl)piperidin-4-yl)-1H-pyrazol-4-yl)pyrazine-2-carboxylate]	64.37%	50.39%	540 pM	19.55%	17.67%
Nc1ncc(-c2cnn(C3CCN(CCc4cn(C5CCN(C(=O)CNc6ccc7c(c6)C(=O)N(C6CCC(=O)NC6=O)C7=O)CC5)nn4)CC3)c2)nc1C(=O)O[C@@H](C(=O)Nc1ccc(F)cc1)c1ccccc1 (stereo partly drawn) [TDH-452, (R)-2-((4-fluorophenyl)amino)-2-oxo-1-phenylethyl 3-amino-6-(1-(1-(2-(1-(1-((2-(2,6-dioxopiperidin-3-yl)-1,3-dioxoisoindolin-5-yl)glycyl)piperidin-4-yl)-1H-1,2,3-triazol-4-yl)ethyl)piperidin-4-yl)-1H-pyrazol-4-yl)pyrazine-2-carboxylate]	61.94%	52.12%	1800 pM	38.27%	26.02%
Nc1ncc(-c2cnn(C3CCN(CCCN4CC5CC4CN5C(=O)COc4ccc5c(c4)C(=O)N(C4CCC(=O)NC4=O)C5=O)CC3)c2)nc1C(=O)O[C@@H](C(=O)Nc1ccc(F)cc1)c1ccccc1 (stereo partly drawn) [TDH-453, (R)-2-((4-fluorophenyl)amino)-2-oxo-1-phenylethyl 3-amino-6-(1-(1-(3-(5-(2-((2-(2,6-dioxopiperidin-3-yl)-1,3-dioxoisoindolin-5-yl)oxy)acetyl)-2,5-diazabicyclo[2.2.1]heptan-2-yl)propyl)piperidin-4-yl)-1H-pyrazol-4-yl)pyrazine-2-carboxylate]	74.72%	92.96%	640 pM	51.32%	49.41%

Now from value to compound, other results behind:

Degradation assay (Degradation %) 1 μM (MLKL [1])	Degradation assay (Degradation %) 10 μM (MLKL [1])	Kd (MLKL [2])	Structure (SMILES)	Necroptosis inhibition assay (Rescue %) 1 μM (FADD−/− Jurkat cells)	Necroptosis inhibition assay (Rescue %) 10 μM (FADD−/− Jurkat cells)
80.37%	87.27%	530 pM	Nc1ncc(-c2cnn(C3CCN(C4CC5(CCN(CC6CCN(C(=O)COc7ccc8c(c7)C(=O)N(C7CCC(=O)NC7=O)C8=O)CC6)CC5)C4)CC3)c2)nc1C(=O)O[C@@H](C(=O)Nc1ccc(F)cc1)c1ccccc1 (stereo partly drawn) [TDH-442, (R)-2-((4-fluorophenyl)amino)-2-oxo-1-phenylethyl 3-amino-6-(1-(1-(7-((1-(2-((2-(2,6-dioxopiperidin-3-yl)-1,3-dioxoisoindolin-5-yl)oxy)acetyl)piperidin-4-yl)methyl)-7-azaspiro[3.5]nonan-2-yl)piperidin-4-yl)-1H-pyrazol-4-yl)pyrazine-2-carboxylate]	58.16%	21.7%
20.29%	27.38%	600 pM	COc1ccc(C(=O)N2CCC(CN3CCC(n4cc(-c5cnc(N)c(C(=O)O[C@@H](C(=O)Nc6ccc(F)cc6)c6ccccc6)n5)cn4)CC3)CC2)cc1N1CCC(=O)NC1=O [TDH-445, (R)-2-((4-fluorophenyl)amino)-2-oxo-1-phenylethyl 3-amino-6-(1-(1-((1-(3-(2,4-dioxotetrahydropyrimidin-1(2H)-yl)-4-methoxybenzoyl)piperidin-4-yl)methyl)piperidin-4-yl)-1H-pyrazol-4-yl)pyrazine-2-carboxylate]	12.07%	19.83%
57.4%	17.94%	220 pM	COc1ccc(C(=O)N2CCC(CCN3CCC(n4cc(-c5cnc(N)c(C(=O)O[C@@H](C(=O)Nc6ccc(F)cc6)c6ccccc6)n5)cn4)CC3)CC2)cc1N1CCC(=O)NC1=O [TDH-446, (R)-2-((4-fluorophenyl)amino)-2-oxo-1-phenylethyl 3-amino-6-(1-(1-(2-(1-(3-(2,4-dioxotetrahydropyrimidin-1(2H)-yl)-4-methoxybenzoyl)piperidin-4-yl)ethyl)piperidin-4-yl)-1H-pyrazol-4-yl)pyrazine-2-carboxylate]	34.93%	8.47%
87.16%	90.47%	2000 pM	Nc1ncc(-c2cnn(C3CCN(CCCN4CC5CC4CN5C(=O)CNc4ccc5c(c4)C(=O)N(C4CCC(=O)NC4=O)C5=O)CC3)c2)nc1C(=O)O[C@@H](C(=O)Nc1ccc(F)cc1)c1ccccc1 (stereo partly drawn) [TDH-454, (R)-2-((4-fluorophenyl)amino)-2-oxo-1-phenylethyl 3-amino-6-(1-(1-(3-(5-((2-(2,6-dioxopiperidin-3-yl)-1,3-dioxoisoindolin-5-yl)glycyl)-2,5-diazabicyclo[2.2.1]heptan-2-yl)propyl)piperidin-4-yl)-1H-pyrazol-4-yl)pyrazine-2-carboxylate]	65.44%	39.99%
